Experimental data as given in paper PMC10581251, “Antisense inhibition of RNA polymerase α subunit of Clostridioides difficile” (Microbiology Spectrum, 2023).
Counter-ions that a name gives are not always drawn. Like-named read-outs stand apart in the source and are kept apart here. Where no end group is shown, it is not given here.

Tests used:
[1] = test system: C. difficile ATCC 630; experiment: microbe, parasite or virus in culture
Protocol: (§1) The susceptibility of C. difficile isolates to the CPP-PNA conjugates or to the CPP alone was determined in vitro as described before with slight modifications ([43] [–] [45]). Briefly, the CPP-PNA conjugates, the CPP alone, and the antibiotics vancomycin and fidaxomicin were added in triplicate to the first row of ultra-low adhesion 96-well plates (Corning Inc., Corning, NY). A suspension of C. difficile equivalent to 0.5 McFarland solution was added to Mueller-Hilton II broth, which was then added to the ultra-low adhesion plate and then serially diluted. The plates were incubated anaerobically for 48 hours at 37°C. The minimum inhibitory concentration was defined as the lowest concentration of the CPP-PNA conjugate that could inhibit bacterial growth when observed visually.
(§2) The MIC and MBC experiments were repeated twice.

[2] = test system: C. difficile ATCC 43255; experiment: MIC/MBC broth microdilution, C. difficile ATCC 43255; assay type: cell-based, Clostridioides difficile
Protocol: as §1, §2

[3] = test system: C. difficile ATCC BAA 1870; experiment: MIC/MBC broth microdilution, C. difficile ATCC BAA 1870; assay type: cell-based, Clostridioides difficile
Protocol: as §1, §2

[4] = test system: clinical isolates of C. difficile; experiment: MIC against clinical isolates of C. difficile (summary); assay type: cell-based, Clostridioides difficile; settings: range over isolates of Table 3
Protocol: as §1, §2

[5] = test system: C. difficile 630; experiment: Effect of high bacterial inoculum on activity; assay type: cell-based, Clostridioides difficile; settings: 8 hours
Protocol: The in vitro efficacy of the PNA constructs against a high inoculum size of C. difficile 630 was determined. Briefly, the PNA constructs and control antibiotics, at a concentration of 1× MIC, were added in triplicate to low adhesion microcentrifuge tubes (Corning Inc., Corning, NY). A high inoculum of C. difficile suspension equivalent to ~5 × 10^6 and ~5 × 10^7 cells was added to the tubes, which were incubated anaerobically at 37°C. The number of viable bacteria in each treatment group was determined by serial dilution and plating on BHIS agar plates at 8 hours and 24 hours post-incubation, respectively. The effect of a high inoculum on the activity of the PNA construct was repeated twice.

[6] = test system: Lactobacillus rhamnosus ATCC 53103; experiment: MIC gut microflora, Lactobacillus rhamnosus; assay type: cell-based; settings: Lacticaseibacillus rhamnosus, ATCC53103, 48 h
Protocol: (§3) The susceptibility of gut microflora strains to the rpoA-TAT conjugate was determined using the broth microdilution assay, as described above. Briefly, bacterial suspensions of Bifidobacterium sp. and Bacteroides sp., in supplemented BHIS broth, and Lactobacilli strains, in MRS broth, were added to ultra-low adhesion 96-well plates and serially diluted. The MIC was recorded after 48 hours.

[7] = test system: C. difficile 1082; experiment: MIC/MBC broth microdilution, C. difficile 1082; assay type: cell-based, Clostridioides difficile
Protocol: as §1, §2

[8] = test system: C. difficile ATCC 630; experiment: Effect of pH on MIC/MBC, C. difficile ATCC 630; assay type: cell-based, Clostridioides difficile; settings: Clostridioides difficile
Protocol: as §1, §2
(§4) The susceptibility of C. difficile (ATCC 630 and ATCC BAA 1870) to the rpoA-TAT conjugate was evaluated over a pH range of 6 to 9 using the broth microdilution method ([43], [46] [–] [48]). The desired pH for susceptibility testing was attained by the addition of either 0.1 N HCL or 1 N NaOH to the media. The experiment was repeated twice.

[9] = test system: C. difficile 1071; experiment: MIC/MBC broth microdilution, C. difficile 1071; assay type: cell-based, Clostridioides difficile
Protocol: as §1, §2

[10] = test system: C. difficile 1079; experiment: MIC/MBC broth microdilution, C. difficile 1079; assay type: cell-based, Clostridioides difficile
Protocol: as §1, §2

[11] = test system: Bifidobacterium longum subsp. longum HM 846; experiment: MIC gut microflora, Bifidobacterium longum; assay type: cell-based
Protocol: as §3

[12] = test system: spore formation by C. difficile ATCC 630; experiment: Spore formation inhibition; assay type: cell-based, Clostridioides difficile; settings: 0.5× MIC, 12 hours
Protocol: After the incubation period, the total bacterial count for each treatment group was determined by serial dilution and plating on BHIS agar plates supplemented with 0.1% taurocholic acid. To determine the presence of spores, the remaining bacterial culture from each treatment group was heated at 65°C for 30 minutes to ensure all vegetative cells were killed. The bacterial culture from each treatment group was then serially diluted and plated on BHIS agar plates supplemented with 0.1% taurocholic acid. The plates were incubated overnight, and the CFU counts for each treatment group were determined the following day.

[13] = test system: Lactobacillus gasseri ATCC 19992; experiment: MIC gut microflora, Lactobacillus gasseri; assay type: cell-based
Protocol: as §3

[14] = test system: C. difficile ATCC BAA 1870; experiment: Effect of pH on MIC/MBC, C. difficile ATCC BAA 1870; assay type: cell-based, Clostridioides difficile; settings: Clostridioides difficile
Protocol: as §1, §2, §4

[15] = test system: Bacteroides fragilis HM 714; experiment: MIC gut microflora, Bacteroides fragilis; assay type: cell-based; settings: Bacteroides fragilis, HM714, 48 h
Protocol: as §3

[16] = test system: Lactobacillus brevis ATCC 14869; experiment: MIC gut microflora, Lactobacillus brevis; assay type: cell-based; settings: Levilactobacillus brevis, ATCC14869, 48 h
Protocol: as §3

[17] = test system: toxin A and toxin B production by C. difficile 630; experiment: Toxin production inhibition (ELISA); assay type: cell-based, Clostridioides difficile; settings: sub-inhibitory concentrations 0.125×, 0.25×, 0.5× MIC, 8 hours, ELISA
Protocol: After the incubation period, the bacterial count in each treatment group was determined by serial dilution and plating. Toxin content in the supernatant of each treatment group was determined using an enzyme-linked immunosorbent assay (ELISA, tgcBIOMICS) kit, as per the manufacturer’s protocol.

[18] = test system: C. difficile 630; experiment: Killing kinetics (time-kill assay); assay type: cell-based, Clostridioides difficile; settings: 1× MIC, within 24 hours of incubation, inoculum ~5 × 10^5 CFU/mL
Protocol: The killing kinetics of the PNA construct was determined as described previously ([45] [–] [47]). Briefly, an overnight culture of C. difficile 630 was diluted 1:50 into fresh Mueller Hilton II broth (~10^5 CFU/mL) and added in triplicate to low adhesion microcentrifuge tubes containing either sterile water, the rpoA-TAT construct (1× MIC), or the positive controls vancomycin or fidaxomicin (1× MIC). The number of viable bacteria in each treatment group was determined by taking aliquots at 0, 4, 8, 12, 16, and 24 hours; these aliquots were then serially diluted and plated on BHIS agar plates. The plates were incubated anaerobically, and the number of colony-forming units for each treatment group was recorded the following day. The experiment was repeated twice.

[19] = aliquots of wells without growth plated on BHIS agar, repeated twice
[20] = broth microdilution, Mueller-Hilton II broth, anaerobic 48 hours 37°C, visual, triplicate, repeated twice
[21] = broth microdilution, anaerobic 48 hours 37°C, visual, read-out: MIC
[22] = plated on BHIS agar, read-out: MBC

## RFRRFRRFRRFRXB-O-CATGGACAAAAC-NH2 [(RFR)4XB -rpoA]
[1]; [19]
  MBC: 8 µM
[1]; [20]
  MIC: 8 µM

## KFFKFFKFFK-O-CATGGACAAAAC-NH2 [(KFF)3K-rpoA]
[1]; [19]
  MBC: 32 µM
[1]; [20]
  MIC: 32 µM

## RXRRXRRXRRXRXB-O-CATGGACAAAAC-NH2 [(RXR)4XB -rpoA]
[1]; [19]
  MBC: 8 µM
[1]; [20]
  MIC: 8 µM

## GRKKKRRQRRRYK-O-CATACAATTCTC-NH 2 [rpoA-TAT mismatch, mismatch control PNA conjugated to the TAT cell penetrating peptide]
[2]; [21]
  MIC: >32 µM
[2]; [22]
  MBC: >32 µM
[3]; [21]
  MIC: >32 µM
[3]; [22]
  MBC: >32 µM
[1]; [19]
  MBC: >32 µM
[1]; [20]
  MIC: >32 µM
[4]
  MIC against clinical isolates of C. difficile: > 32 µM

## CN[C@H](CC(C)C)C(=O)N[C@H]1C(=O)N[C@@H](CC(N)=O)C(=O)N[C@H]2C(=O)N[C@H]3C(=O)N[C@H](C(=O)N[C@H](C(=O)O)c4cc(O)cc(O)c4-c4cc3ccc4O)[C@H](O)c3ccc(c(Cl)c3)Oc3cc2cc(c3O[C@@H]2O[C@H](CO)[C@@H](O)[C@H](O)[C@H]2O[C@H]2C[C@](C)(N)[C@H](O)[C@H](C)O2)Oc2ccc(cc2Cl)[C@H]1O [Vancomycin, Vancomycin hydrochloride]
[5]; inoculum 5 × 10^6, 1× MIC
  Log CFU: 5.37
[5]; inoculum 5 × 10^6, 1× MIC, vs no treatment
  Log reduction: 1
[5]; inoculum 5 × 10^7, 1× MIC
  Log CFU: 7.03
[6]
  MIC: > 64 µM
[2]; Clostridioides difficile, ATCC43255
  MBC: 4 µM
[2]; Clostridioides difficile, ATCC43255, 48 h
  MIC: 4 µM
[7]; Clostridioides difficile, 1082
  MBC: 2 µM
[7]; Clostridioides difficile, 1082, 48 h
  MIC: 2 µM
[8]; ATCC630, pH 6
  MBC: 2 µM
  MIC: 2 µM
[8]; ATCC630, pH 7
  MBC: 4 µM
  MIC: 4 µM
[8]; ATCC630, pH 8
  MBC: 16 µM
  MIC: 8 µM
[9]; Clostridioides difficile, 1071
  MBC: 2 µM
[9]; Clostridioides difficile, 1071, 48 h
  MIC: 2 µM
[10]; Clostridioides difficile, 1079
  MBC: 2 µM
[10]; Clostridioides difficile, 1079, 48 h
  MIC: 2 µM
[3]; Clostridioides difficile, BAA1870
  MBC: 4 µM
[3]; Clostridioides difficile, BAA1870, 48 h
  MIC: 4 µM
[11]; Bifidobacterium longum, 48 h
  MIC: 2 µM
[11]; broth microdilution, supplemented BHIS broth, 48 hours
  MIC: 2 µM
[12]
  inhibition of spore formation (in words): did not inhibit spore formation
[13]; Lactobacillus gasseri, ATCC19992, 48 h
  MIC: 1 µM
[13]; broth microdilution, MRS broth, 48 hours, read-out: MIC
  MIC: 1 µM
[1]; Clostridioides difficile, ATCC630
  MBC: 2 µM
[1]; Clostridioides difficile, ATCC630, 48 h
  MIC: 2 µM
[14]; BAA1870, pH 6
  MBC: 4 µM
  MIC: 4 µM
[14]; BAA1870, pH 7
  MBC: 8 µM
  MIC: 4 µM
[14]; BAA1870, pH 8
  MBC: 16 µM
  MIC: 8 µM
[15]
  MIC: 64 µM
[16]
  MIC: > 64 µM
[17]
  inhibition of toxin production (in words): did not inhibit toxin production
[18]
  reduction of bacterial burden: ~ 1.6 log10 CFU/mL

## GRKKKRRQRRRYK [HIV-TAT]
[1]; [20]
  MIC: >64 µM

## KKKKKKKK-O-CATGGACAAAAC-NH2 [K8-rpoA]
[1]; [19]
  MBC: 32 µM
[1]; [20]
  MIC: 32 µM
